Reference: patent publication USRE45907E1, “Functionalized stilbene derivatives as improved vascular targeting agents” (OXiGENE, Inc., priority 2001, dated 2016)
Counter-ions that a name gives are not always drawn. Like-named read-outs stand apart in the source and are kept apart here.

Key:
[1] = test system: MHEC-5T hemangioendothelioma tumor; assay type: in vivo; details: 100 mg/kg single i.p. dose, 24 hours post-treatment, SCID mice with MHEC5-T tumor
Description: The vascular effects of the following compounds were assessed in tumor-bearing mice using a fluorescent-bead assay. A MHEC-5T hemangioendothelioma tumor model was established by subcutaneous injection of 0.5×10^6 cultured MHEC5-T cells into the right flank of Fox Chase CB-17 SCID mice and allowed to grow to a size of 300 mm^3 before i.p. injection with a single dose of saline control or compound. At 24 hours post-treatment, mice were i.v. injected with 0.25 ml of diluted FluoSphere beads (1:6 in physiological saline) in the tail vein, and sacrificed after 3 minutes. Tumor cryosections at a thickness of 8 um were directly examined using quantitative fluorescent microscopy. For quantification, image analysis of 3 sections from three tumor treated in each group were examined and vascular shutdown was expressed a vessel area per tissue area (mm^2) in percentage of the control.

[2] = assay type: cell-based
Description: Exponentially growing were treated with the following compounds for 1 hour and 5 days. Insoluble compounds were formulated in a small amount (0.3%) of DMSO for biological evaluation. Cell viability was determined by the calorimetric MTT assay using 3(4,5-dimethylthiazol-2-yl)-2,5-diphenyl-2H-tetrazolium bromide according to well-established procedures (see Berridge, et al. (1996) for a general protocol of this type of assay).

[3] = test system: tubulin; test: Inhibition of tubulin polymerization; assay type: biochemical
[4] = test system: human cancer cell lines; test: MTT cytotoxicity of combretastatins and prodrugs (Table 1); assay type: cell-based
[5] = treated for 1 hour, read-out: IC50 @ 1 h
[6] = treated for 5 days, read-out: IC50 @ 5 days
[7] = 1 h, read-out: MTT Cytotoxicity (IC50) at 1 hour
[8] = 5 h, read-out: MTT Cytotoxicity (IC50) at 5 hours

Row | Molecule | % Blood Flow Shutdown (100 mg/kg) [1] | IC50 [2, 5] | IC50 [2, 6] | further results
1 | 3′,5′-Tetrasodium Phosphate-3,4,4′,5-tetramethoxy-(Z)-stilbene [ZSB-2B] | 65% | 25 µM | 1 µM | –
2 | COc1ccc(/C=C\c2cc(OC)c(OC)c(OC)c2)c(O)c1O [CA-1, combretastatin A-1] | – | – | – | IC50 [3]: 2 to 4 µM; activity with tubulin [3]: active with tubulin; IC50 [4, 7]: 10 µM; IC50 [4, 8]: 0.05 µM
3 | COc1cc(/C=C\c2ccc(OC)c(OP(=O)(O)O)c2OP(=O)(O)O)cc(OC)c1OC [CA-1P] | – | – | – | IC50 [3]: > 40 µM; activity with tubulin [3]: not active with tubulin; IC50 [4, 7]: 3.2 µM; IC50 [4, 8]: 0.0046 µM
4 | COc1ccc(/C=C\c2cc(OC)c(OC)c(OC)c2)cc1O [CA-4, Combretastatin A-4] | – | – | – | IC50 [3]: […]; IC50 [4, 7]: 0.1 µM; IC50 [4, 8]: 0.05 µM
5 | COc1ccc(/C=C\c2cc(OC)c(OC)c(OC)c2)cc1OP(=O)(O)O [CA-4P] | – | – | – | IC50 [3]: > 40 µM; IC50 [4, 7]: 0.8 µM; IC50 [4, 8]: 0.002 µM
6 | COc1ccc(/C=C\c2cc(OC)c(OC)c(OC)c2)cc1OP(=O)(O)OC1CCCCC1 [Oxi-com191, CA4P Cyclohexane Ester, Ammonium Salt] | – | 35 µM | 0.13 µM | –
7 | COc1ccc(/C=C\c2cc(OC)c(OC)c(OC)c2)cc1OP(=O)(O)OC [Oxi-com209, CA-4P Methyl Ester, Ammonium Salt] | – | 38 µM | 0.07 µM | –
8 | COc1ccc(/C=C\c2cc(OC)c(OC)c(OC)c2)c(N)c1N [ZSB-3B, 2′,3′-Damino-3,4,4′,5-tetramethoxy-(Z)-stilbene] | – | 2.4 µM | 0.0043 µM | –
9 | COc1ccc(/C=C\c2cc(OC)c(OC)c(OC)c2)c(Br)c1O [ZSB-16, 2′-Bromo-3′-Hydroxy-3,4,4′,5-tetramethoxy-(Z)-stilbene] | – | 2 µM | 0.0067 µM | –
10 | COc1ccc(/C=C\c2cc(OC)c(OC)c(OC)c2)c(O)c1Br [ZSB-26A, 2′ Hydroxy-3′-bromo-3,4,4′,5-tetramethoxy-(Z)-stilbene] | – | 3.07 µM | 0.016 µM | –
11 | COc1cc(/C=C\c2ccc(OC)c(OP(=O)([O-])[O-])c2OC)cc(OC)c1OC.[Na+].[Na+] [ZSB-27B, 3′-Disodium Phosphate-3,3′,4,4′,5-pentamethoxy-(Z)-stilbene] | 41% | – | – | –
12 | COc1cc(/C=C\c2cc(OC)c(OC)c(OC)c2)c(I)cc1OP(=O)([O-])[O-].[Na+].[Na+] [ZSB-29B, 4′-Disodium Phosphate-2′-Iodo-3,4,5,5′-tetramethoxy-(Z)-stilbene] | 43% | – | – | –
13 | COc1cc(OP(=O)([O-])[O-])c(/C=C\c2cc(OC)c(OC)c(OC)c2)cc1OP(=O)([O-])[O-].[Na+].[Na+].[Na+].[Na+] [ZSB-33B, 2′,5′-Tetrasodium Diphosphate-3,4,4′,5-tetramethoxy-(Z)-stilbene] | 51% | – | – | –
14 | COc1ccc(/C=C\c2cc(OC)c(OC)c(OC)c2)c(N)c1 [ZSB-39B, 2′-Amino-3,4,4′,5-tetramethoxy-(Z)-stilbene] | 50% | – | – | –
15 | COc1ccc(/C=C\c2cc(OC)c(OC)c(OC)c2)c(F)c1O [ZSB-41A, 2′-Fluoro-3′-Hydroxy-3,4,4′,5-tetramethoxy-(Z)-stilbene] | – | 8 µM | 0.015 µM | –
16 | COc1cc(/C=C\c2cc(O)c(OC)c([N+](=O)[O-])c2)cc(OC)c1OC [ZSB-43, 3′-Hydroxy, 5′-Nitro-3,4,4′,5-tetramethoxy-(Z)-stilbene] | – | 8 µM | 1.3 µM | –
17 | COc1ccc(/C=C\c2cc(OC)c(OC)c(OC)c2)c(NC(=O)C(N)CO)c1 (centres unmarked) [ZSB-45, 2′serinamide-3,4,4′,5-tetramethoxy-(Z)-stilbene] | 43% | 10 µM | 0.05 µM | –
18 | COc1ccc(/C=C\c2cc(OC)c(OC)c(OC)c2)c(O)c1 [ZSB-46A, 2′-Hydroxy-3,4,4′,5-tetramethoxy-(Z)-stilbene] | – | 43 µM | 0.068 µM | –
19 | CA4P n-Octyl Ester, Ammonium Salt [Oxi-com210] | 89% | – | – | –
